This assay addresses T1, hT1R1/hT1R3 umami receptor (Homo sapiens, UniProt Q7RTX0+Q7RTX1).
T1 construct: expressed in transfected cells; host or cells: HEK293 derivative stably expressing Gα15, clone I-17, expression induced with mifepristone
T1 sequence (Q7RTX1 21-841): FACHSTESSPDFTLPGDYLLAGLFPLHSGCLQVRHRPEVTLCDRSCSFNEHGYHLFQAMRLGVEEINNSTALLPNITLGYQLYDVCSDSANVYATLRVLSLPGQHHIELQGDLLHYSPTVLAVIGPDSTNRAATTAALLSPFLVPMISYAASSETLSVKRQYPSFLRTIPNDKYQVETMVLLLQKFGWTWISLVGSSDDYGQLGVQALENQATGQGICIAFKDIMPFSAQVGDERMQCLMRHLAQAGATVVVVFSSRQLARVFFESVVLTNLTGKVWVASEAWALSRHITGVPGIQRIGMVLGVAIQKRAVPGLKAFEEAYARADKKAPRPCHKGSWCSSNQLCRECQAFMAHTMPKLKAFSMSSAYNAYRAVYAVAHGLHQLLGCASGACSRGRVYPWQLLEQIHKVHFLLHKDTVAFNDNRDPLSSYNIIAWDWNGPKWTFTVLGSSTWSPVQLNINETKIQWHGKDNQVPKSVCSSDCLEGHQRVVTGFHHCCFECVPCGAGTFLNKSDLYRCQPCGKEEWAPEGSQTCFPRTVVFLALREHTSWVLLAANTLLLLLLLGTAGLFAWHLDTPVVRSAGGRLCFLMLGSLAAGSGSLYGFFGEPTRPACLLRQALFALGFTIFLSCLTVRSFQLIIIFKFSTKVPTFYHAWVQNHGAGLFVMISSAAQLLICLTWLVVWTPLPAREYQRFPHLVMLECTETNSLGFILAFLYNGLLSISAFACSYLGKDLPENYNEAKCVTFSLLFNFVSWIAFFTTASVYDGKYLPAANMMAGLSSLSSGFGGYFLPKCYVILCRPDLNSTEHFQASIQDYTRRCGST
T1 sequence (Q7RTX0 21-852): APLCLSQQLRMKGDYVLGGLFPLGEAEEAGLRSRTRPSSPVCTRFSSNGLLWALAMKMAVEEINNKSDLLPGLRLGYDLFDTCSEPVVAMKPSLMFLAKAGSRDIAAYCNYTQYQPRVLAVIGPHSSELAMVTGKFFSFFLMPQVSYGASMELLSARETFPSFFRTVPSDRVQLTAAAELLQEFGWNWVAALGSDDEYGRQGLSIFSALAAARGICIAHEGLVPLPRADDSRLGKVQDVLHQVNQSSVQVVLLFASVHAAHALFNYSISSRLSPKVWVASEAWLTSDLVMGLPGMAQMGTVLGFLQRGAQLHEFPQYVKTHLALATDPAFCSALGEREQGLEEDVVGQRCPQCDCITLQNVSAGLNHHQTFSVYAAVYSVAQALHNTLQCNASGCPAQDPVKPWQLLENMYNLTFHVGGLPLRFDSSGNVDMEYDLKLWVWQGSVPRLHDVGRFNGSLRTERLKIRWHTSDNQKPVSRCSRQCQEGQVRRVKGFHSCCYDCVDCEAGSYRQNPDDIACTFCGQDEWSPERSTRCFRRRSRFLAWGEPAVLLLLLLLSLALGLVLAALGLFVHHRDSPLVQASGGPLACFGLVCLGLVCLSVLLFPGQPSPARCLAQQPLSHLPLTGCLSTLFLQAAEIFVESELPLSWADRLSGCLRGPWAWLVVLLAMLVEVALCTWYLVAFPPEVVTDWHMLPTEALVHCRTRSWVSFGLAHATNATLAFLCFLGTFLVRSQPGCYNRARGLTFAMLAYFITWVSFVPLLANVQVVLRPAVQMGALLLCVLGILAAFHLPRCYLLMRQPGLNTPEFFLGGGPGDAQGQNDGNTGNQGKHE
Description: In vitro hT1R1/hT1R3 umami taste receptor activation assay (FLIPR, dose response). It is filed as cell-based.

Setting [1] is: read-out: EC50 for activation of a hT1R1/hT1R3 umami receptor expressed in an HEK293 cell line.
Where [2] appears, read: Table C, Umami Ureas, read-out: Umami EC50.
[3] abbreviates: Table A, Umami Amides, read-out: Umami EC50.

Molecules are shown by their SMILES. Read-outs that look alike come from different tables or passages of the source.

On to `CCCC(CCC)NC(=O)c1cc2ccccc2o1` [Example 25, benzofuran-2-carboxylic(1-propylbutyl)amide], for which the EC50 under setting [1] was found to be 0.88 µM. As to `Cc1ccc(NC(=O)N[C@@H](C)C(C)C)c(Cl)c1` [Example C23, (S)-1-(2-chloro-4-methylphenyl)-3-(3-methylbutan-2-yl)urea], the EC50 under setting [2] was 0.38 µM. As for `CCCC(CCC)NC(=O)c1cc2ccccc2s1` [Example 34, N-(heptan-4-yl)benzo[b]thiophene-2-carboxamide], the EC50 under setting [1] came to 0.21 µM.

Consider `O=C(Nc1ccccc1F)NC1CCCc2ccccc21` (centres unmarked) [Example C11, 1-(2-fluorophenyl)-3-(1,2,3,4-tetrahydronaphthalen-1-yl)urea], for which the EC50 under setting [2] is 1.65 µM.

Consider `COC(=O)[C@@H](CC(C)C)NC(=O)c1ccc(SC)cc1OC` [Example 74, (R)-methyl 2-(2-methoxy-4-(methylthio)benzamido)-4-methylpentanoate], for which, under setting [1], the EC50 is 15.8 µM. In the case of `CCOc1ccc(C(=O)N[C@H]2CCc3ccccc32)cc1C` [drawing 28, (S)-N-(2,3-dihydro-1H-inden-1-yl)-4-ethoxy-3-methylbenzamide], the EC50 (opposite enantiomers compared, read-out: AFFINITY FOR T1R1/T1R3 SAVORY RECEPTOR EC50 UM) was found to be 0.85 µM. As for `COC(=O)C(CC(C)C)NC(=O)c1cc2ccccc2o1` (stereo in doubt) [Example A5, 2-[(Benzofuran-2-carbonyl)-amino]-4-methyl-pentanoic acid methyl ester], the EC50 under setting [3] was determined as 0.31 µM. Take `CCCC(CCC)NC(=O)c1ccc(C)c(C)n1` [Example 91, N-(heptan-4-yl)-5,6-dimethylpicolinamide]: under setting [1], the EC50 was found to be 2.8 µM. The same measure, in the same setting: in the case of `COC(=O)[C@@H](CC(C)C)NC(=O)c1cc2cc(C)ccc2[nH]1` [Example 36, (R)-methyl 4-methyl-2-(5-methyl-1H-indole-2-carboxamido)pentanoate] it was 6.6 µM; in that of `CC(C)C[C@@H](NC(=O)c1ccc2c(c1)OCO2)C(=O)NCCc1cccnc1` [Example 15, (R)-N-(4-methyl-1-oxo-1-(2-(pyridin-3-yl)ethylamino)pentan-2-yl)benzo[d][1,3]dioxole-5-carboxamide], 1.7 µM.

Regarding `CCCC(NC(=O)c1ccc(OC)c(C)c1)C(C)C` (centres unmarked) [Example A59, 4-methoxy-3-methyl-N-(2-methylhexan-3-yl)benzamide], the EC50 under setting [3] came out at 0.2 µM. The same measure, in the same setting: next, `CC(CCc1ccccc1)NC(=O)c1ccc2c(c1)OCO2` (centres unmarked) [Example A48]: 1.51 µM. As to `CCC(CC(C)C)NC(=O)c1ccc(OC)c(C)c1` (centres unmarked) [Example 53, 4-methoxy-3-methyl-N-(5-methylhexan-3-yl)benzamide], the EC50 under setting [1] was 0.09 µM. In the case of `CCC(CC(C)C)NC(=O)c1cc2cc(C)ccc2o1` (centres unmarked) [Example A8, 5-methyl-N-(5-methylhexan-3-yl)benzofuran-2-carboxamide], the EC50 under setting [3] came to 0.5 µM. As to `CCCCC(NC(=O)c1ccc(OC)c(Cl)c1)C(=O)OC` (centres unmarked) [Example A55, methyl 2-(3-chloro-4-methoxybenzamido)hexanoate], the EC50 under setting [3] turned out to be 0.12 µM. Still for that read-out and setting: next, `COC(=O)C(CC(C)C)NC(=O)c1cc2ccccc2s1` (stereo in doubt) [Example A4, 2-[(Benzo[b]thiophene-2-carbonyl)-amino]-4-methyl-pentanoic acid methyl ester]: 0.4 µM. Consider `CCCC(CCC)NC(=O)c1ccc(C)nc1Cl` [Example 96, 2-chloro-N-(heptan-4-yl)-6-methylnicotinamide], for which, under setting [1], the EC50 was 3.9 µM. Take `CCCC(CC(C)C)NC(=O)c1ccc(OCC)c(C)c1` (centres unmarked) [Example A92, 4-ethoxy-3-methyl-N-(2-methylheptan-4-yl)benzamide]: the EC50 under setting [3] was found to be 0.65 µM. Consider `CCCC(CCC)NC(=O)/C=C/c1ccccc1OC` [Example 86, 3-(2-Methoxy-phenyl)-N-(1-propyl-butyl)-acrylamide], for which the EC50 under setting [1] came out at 0.9 µM.

Take `CCC(CC)NC(=O)c1cc2cc(OC)ccc2o1` [Example A13, 5-methoxy-N-(pentan-3-yl)benzofuran-2-carboxamide]: the EC50 under setting [3] is 1.14 µM.

As for `CCCC(CCC)NC(=O)c1ccc(OC)cc1` [Example A79, N-(heptan-4-yl)-4-methoxybenzamide], under setting [3], the EC50 turned out to be 0.46 µM. The same measure, in the same setting: next, `Cc1cc(C(=O)NC2CCCc3ccccc32)ccc1O` (centres unmarked) [Example A102, 4-hydroxy-3-methyl-N-(1,2,3,4-tetrahydronaphthalen-1-yl)benzamide]: 1.32 µM. On the same count and under the same terms, next, `CCCC(COC)NC(=O)c1ccc(OC)c(C)c1` (centres unmarked) [Example A97, 4-methoxy-N-(1-methoxypentan-2-yl)-3-methylbenzamide]: 0.85 µM. Consider `CCC(CC)NC(=O)Nc1ccc(OC)cc1OC` [Example C13, 1-(2,4-dimethoxyphenyl)-3-(pentan-3-yl)urea], for which the EC50 under setting [2] is 1.72 µM.

Take `CCC(NC(=O)c1ccc(OC)c(C)c1)C(C)C` (centres unmarked) [Example A58, 4-methoxy-3-methyl-N-(2-methylpentan-3-yl)benzamide]: the EC50 under setting [3] came out at 0.2 µM.

Consider `COc1ccc([C@@H](C)NC(=O)c2ccc(OC)c(C)c2)cc1` [Example 117, 4-Methoxy-N-[1-(R)-(4-methoxy-phenyl)-ethyl]-3-methyl-benzamide], for which, under setting [1], the EC50 was determined as 2.8 µM. In the case of `COc1ccc(C(=O)N[C@H](CC(C)C)c2nc(C)no2)cc1C` [Example 55, (R)-4-methoxy-3-methyl-N-(3-methyl-1-(3-methyl-1,2,4-oxadiazol-5-yl)butyl)benzamide], the EC50 under setting [1] is 5.4 µM. Same read-out and setting: in the case of `COC(=O)c1ccc(CNC(=O)C(=O)NCCc2ccccn2)cc1` [Example 141, N-((4-Methoxycarbonylphenyl)methyl)-N′-(2-(pyridin-2-yl)ethyl)oxalamide] it was 3.63 µM. With `C=Cc1ccc(C(=O)N[C@H]2CCCc3ccccc32)cc1` [Example A105, (S)-N-(1,2,3,4-tetrahydronaphthalen-1-yl)-4-vinylbenzamide], the EC50 under setting [3] was 1.38 µM. On to `CCCC(CCC)NC(=O)c1csc(C)n1` [Example 100, N-(heptan-4-yl)-2-methylthiazole-4-carboxamide], for which, under setting [1], the EC50 was found to be 7.2 µM. For the molecule `CCCC(CCC)NC(=O)c1ccc(OC)c(C)c1` [Example A61, N-(heptan-4-yl)-4-methoxy-3-methylbenzamide], the EC50 under setting [3] was determined as 0.22 µM. In the case of `CC(C)C(NC(=O)Nc1ccc2c(c1)OCO2)C(C)C` [Example C19, 1-(benzo[d][1,3]dioxol-5-yl)-3-(2,4-dimethylpentan-3-yl)urea], the EC50 under setting [2] was 0.32 µM. `CCCC(CCC)NC(=O)c1cnc2ccccc2c1` [Example 102, N-(heptan-4-yl)quinoline-3-carboxamide]: the EC50 under setting [1] is 15.8 µM. Still for that read-out and setting: in the case of `COc1ccc(CNC(=O)C(=O)NCC(C)c2ccccn2)c(OC)c1` (centres unmarked) [Example 144, N-(294-Dilmethoxybenzyl)-N′-(2-(pyridin-2-yl)propyl)oxalamide] it was 1.07 µM. As to `COC(=O)[C@@H](CC(C)C)NC(=O)c1ccc2[nH]ccc2c1` [Example A36, (R)-methyl 2-(1H-indole-5-carboxamido)-4-methylpentanoate], the EC50 under setting [3] was found to be 1.01 µM.

In the case of `CCCC(CCC)NC(=O)c1ccc2c(c1)OCCCO2` [Example 24, N-(heptan-4-yl)-3,4-dihydro-2H-benzo[b][1,4]dioxepine-7-carboxamide], the EC50 under setting [1] amounted to 6.4 µM.

For the molecule `CCOc1ccc(NC(=O)c2cc(Cl)ccc2Cl)cc1` [Example A3, 2,5-dichloro-N-(4-ethoxyphenyl)benzamide], the EC50 under setting [3] was 1.08 µM. As for `COc1ccc(NC(=O)NC2CCCCC2C)c(OC)c1` (centres unmarked) [Example C8, 1-(2,4-dimethoxyphenyl)-3-(2-methylcyclohexyl)urea], under setting [2], the EC50 is 1.41 µM.

The values are drawn from patent US20060045953A1 (priority 2004, published 2006).
